{
  "source": "patent US8952024B2",
  "about": "“Herbicidal pyrimidone derivatives” (E I du Pont de Nemours and Company, priority 2009, dated 2015)",
  "test_in_all_cases": "Test B pre-/postemergence plant response",
  "assay_type_in_all_cases": "in vivo",
  "key": {"[1]": {"tested_on": "pigweed (Amaranthus retroflexus)", "settings": "for pest or weed control at 31 g/ha: 31 g ai/ha; for pest or weed control at 125 g/ha: 125 g ai/ha", "how_it_was_run": "(§1)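 Visual injury, 0–100 scale (100 = complete control), rated against controls after 13 to 15 days in greenhouse. Pre-emergence: seeds in loam/sand soil, treated at planting. Post-emergence: 1- to 4-leaf plants (2 to 18 cm) in peat/vermiculite medium. Compounds formulated in non-phytotoxic solvent with surfactant.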"}, "soybean (Glycine max)": {"tested_on": "soybean (Glycine max)", "how_it_was_run": "as §1"}, "[2]": {"tested_on": "woolly cupgrass (Eriochloa villosa)", "settings": "for pest or weed control at 31 g/ha: 31 g ai/ha; for pest or weed control at 125 g/ha: 125 g ai/ha", "how_it_was_run": "as §1"}, "[3]": {"tested_on": "downy bromegrass (Bromus tectorum)", "settings": "for pest or weed control at 31 g/ha: 31 g ai/ha; for pest or weed control at 125 g/ha: 125 g ai/ha", "how_it_was_run": "as §1"}, "[4]": {"tested_on": "goosegrass (Eleusine indica)", "settings": "for pest or weed control at 31 g/ha: 31 g ai/ha; for pest or weed control at 125 g/ha: 125 g ai/ha", "how_it_was_run": "as §1"}, "[5]": {"settings": "62 g ai/ha, postemergence, 0 is no effect, 100 is complete control, 13 to 15 days"}, "[6]": {"settings": "Preemergence, 250 g ai/ha, 0 to 100 scale"}},
  "note": "Where two headings read alike, the source gives them in different places.",
  "data": [
    {"smiles": "COCCCn1c(-c2ccccc2)ncc(C(=O)C2=C(O)CCCC2=O)c1=O", "note": "[Compound 81, 5-[(2-hydroxy-6-oxo-cyclohexen-1-yl)carbonyl]-3-(3-methoxypropyl)-2-phenyl-4(3H)-pyrimidinone]", "values": [
      {"measurement": "Pigweed plant response rating (0 to 100 scale)", "setting": "[1]; [5]", "result": 100},
      {"measurement": "pest or weed control at 31 g/ha", "setting": "[1]; Amaranthus retroflexus, post-emergence, postemergence, scale 0 to 100, 0 is no effect, 100 is complete control, read-out: Plant response rating, Pigweed", "result": 98, "unit": "%"},
      {"measurement": "pest or weed control at 125 g/ha", "setting": "[1]; Amaranthus retroflexus, post-emergence, Postemergence, visual rating after 13 to 15 days, scale 0 (no effect) to 100 (complete control)", "result": 100, "unit": "%"},
      {"measurement": "pest or weed control at 250 g/ha", "setting": "[1]; Amaranthus retroflexus, post-emergence, Postemergence, 250 g ai/ha, scale 0 to 100 (0 no effect, 100 complete control), read-out: Plant response rating, Pigweed", "result": 100, "unit": "%"},
      {"measurement": "pest or weed control at 31 g/ha", "setting": "[1]; Amaranthus retroflexus, pre-emergence, Preemergence, scale 0 to 100 (0 no effect, 100 complete control), read-out: Plant response rating, Pigweed", "result": 100, "unit": "%"},
      {"measurement": "pest or weed control at 62 g/ha", "setting": "[1]; Amaranthus retroflexus, pre-emergence, Preemergence, 62 g ai/ha, scale 0 to 100 (0 no effect, 100 complete control), read-out: Plant response rating, Pigweed", "result": 100, "unit": "%"},
      {"measurement": "pest or weed control at 125 g/ha", "setting": "[1]; Amaranthus retroflexus, pre-emergence, Preemergence, scale 0 to 100, 0 no effect, 100 complete control, read-out: Plant response rating, Pigweed", "result": 100, "unit": "%"},
      {"measurement": "Pigweed plant response rating", "setting": "[1]; [6]", "result": 100},
      {"measurement": "Soybean plant response rating (0 to 100 scale)", "setting": "soybean (Glycine max); [5]", "result": 95},
      {"measurement": "plant injury at 31 g/ha", "setting": "soybean (Glycine max); Glycine max, post-emergence, 31 g ai/ha, postemergence, scale 0 to 100, 0 is no effect, 100 is complete control, read-out: Plant response rating, Soybean", "result": 85, "unit": "%"},
      {"measurement": "plant injury at 125 g/ha", "setting": "soybean (Glycine max); Glycine max, post-emergence, Postemergence, 125 g ai/ha, visual rating after 13 to 15 days, scale 0 (no effect) to 100 (complete control)", "result": 95, "unit": "%"},
      {"measurement": "plant injury at 250 g/ha", "setting": "soybean (Glycine max); Glycine max, post-emergence, Postemergence, 250 g ai/ha, scale 0 to 100 (0 no effect, 100 complete control), read-out: Plant response rating, Soybean", "result": 98, "unit": "%"},
      {"measurement": "Cupgrass, Woolly plant response rating (0 to 100 scale)", "setting": "[2]; [5]", "result": 75},
      {"measurement": "pest or weed control at 31 g/ha", "setting": "[2]; Eriochloa villosa, post-emergence, postemergence, scale 0 to 100, 0 is no effect, 100 is complete control, read-out: Plant response rating, Cupgrass, Woolly", "result": 65, "unit": "%"},
      {"measurement": "pest or weed control at 125 g/ha", "setting": "[2]; Eriochloa villosa, post-emergence, Postemergence, visual rating after 13 to 15 days, scale 0 (no effect) to 100 (complete control)", "result": 90, "unit": "%"},
      {"measurement": "pest or weed control at 250 g/ha", "setting": "[2]; Eriochloa villosa, post-emergence, Postemergence, 250 g ai/ha, scale 0 to 100 (0 no effect, 100 complete control), read-out: Plant response rating, Cupgrass, Woolly", "result": 90, "unit": "%"},
      {"measurement": "pest or weed control at 31 g/ha", "setting": "[2]; Eriochloa villosa, pre-emergence, Preemergence, scale 0 to 100 (0 no effect, 100 complete control), read-out: Plant response rating, Cupgrass, Woolly", "result": 40, "unit": "%"},
      {"measurement": "pest or weed control at 62 g/ha", "setting": "[2]; Eriochloa villosa, pre-emergence, Preemergence, 62 g ai/ha, scale 0 to 100, 0 no effect, 100 complete control, read-out: Plant response rating, Cupgrass, Woolly", "result": 55, "unit": "%"},
      {"measurement": "pest or weed control at 125 g/ha", "setting": "[2]; Eriochloa villosa, pre-emergence, Preemergence, scale 0 to 100, 0 no effect, 100 complete control, read-out: Plant response rating, Cupgrass, Woolly", "result": 75, "unit": "%"},
      {"measurement": "Cupgrass, Woolly plant response rating", "setting": "[2]; [6]", "result": 85},
      {"measurement": "Bromegrass, Downy plant response rating (0 to 100 scale)", "setting": "[3]; [5]", "result": 5},
      {"measurement": "pest or weed control at 31 g/ha", "setting": "[3]; Bromus tectorum, post-emergence, postemergence, scale 0 to 100, 0 is no effect, 100 is complete control, read-out: Plant response rating, Bromegrass, Downy", "result": 5, "unit": "%"},
      {"measurement": "pest or weed control at 125 g/ha", "setting": "[3]; Bromus tectorum, post-emergence, Postemergence, visual rating after 13 to 15 days, scale 0 (no effect) to 100 (complete control)", "result": 30, "unit": "%"},
      {"measurement": "pest or weed control at 250 g/ha", "setting": "[3]; Bromus tectorum, post-emergence, Postemergence, 250 g ai/ha, scale 0 to 100 (0 no effect, 100 complete control), read-out: Plant response rating, Bromegrass, Downy", "result": 50, "unit": "%"},
      {"measurement": "pest or weed control at 31 g/ha", "setting": "[3]; Bromus tectorum, pre-emergence, Preemergence, scale 0 to 100 (0 no effect, 100 complete control), read-out: Plant response rating, Bromegrass, Downy", "result": 0, "unit": "%"},
      {"measurement": "pest or weed control at 62 g/ha", "setting": "[3]; Bromus tectorum, pre-emergence, Preemergence, 62 g ai/ha, scale 0 to 100, 0 no effect, 100 complete control, read-out: Plant response rating, Bromegrass, Downy", "result": 0, "unit": "%"},
      {"measurement": "pest or weed control at 125 g/ha", "setting": "[3]; Bromus tectorum, pre-emergence, Preemergence, scale 0 to 100, 0 no effect, 100 complete control, read-out: Plant response rating, Bromegrass, Downy", "result": 0, "unit": "%"},
      {"measurement": "Bromegrass, Downy plant response rating", "setting": "[3]; [6]", "result": 0},
      {"measurement": "Goosegrass plant response rating (0 to 100 scale)", "setting": "[4]; [5]", "result": 70},
      {"measurement": "pest or weed control at 31 g/ha", "setting": "[4]; Eleusine indica, post-emergence, postemergence, scale 0 to 100, 0 is no effect, 100 is complete control, read-out: Plant response rating, Goosegrass", "result": 65, "unit": "%"},
      {"measurement": "pest or weed control at 125 g/ha", "setting": "[4]; Eleusine indica, post-emergence, Postemergence, visual rating after 13 to 15 days, scale 0 (no effect) to 100 (complete control)", "result": 70, "unit": "%"},
      {"measurement": "pest or weed control at 250 g/ha", "setting": "[4]; Eleusine indica, post-emergence, Postemergence, 250 g ai/ha, scale 0 to 100 (0 no effect, 100 complete control), read-out: Plant response rating, Goosegrass", "result": 80, "unit": "%"},
      {"measurement": "pest or weed control at 31 g/ha", "setting": "[4]; Eleusine indica, pre-emergence, Preemergence, scale 0 to 100 (0 no effect, 100 complete control), read-out: Plant response rating, Goosegrass", "result": 98, "unit": "%"},
      {"measurement": "pest or weed control at 62 g/ha", "setting": "[4]; Eleusine indica, pre-emergence, Preemergence, 62 g ai/ha, scale 0 to 100, 0 no effect, 100 complete control, read-out: Plant response rating, Goosegrass", "result": 98, "unit": "%"},
      {"measurement": "pest or weed control at 125 g/ha", "setting": "[4]; Eleusine indica, pre-emergence, Preemergence, scale 0 to 100, 0 no effect, 100 complete control, read-out: Plant response rating, Goosegrass", "result": 100, "unit": "%"}
    ]}
  ]
}
